Source: PubChem BioAssay AID434935 (Broad Institute, 2010)
Records with an inconclusive call do not appear. Calls of active or inactive are those of the source.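 How the source made its calls: active means EC50 no higher than ten times the top concentration tested; inconclusive means flat fit with growth inhibition between 30% and 70%, or poor fit; inactive means EC50 above ten times the top concentration tested.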

tested on: C. albicans CaCi-8 + fluconazole, Alamar Blue growth, 48 h; experiment: resistant C. albicans growth reduction under fluconazole – CaCi-8 strain, Alamar Blue fluorescence, SAR follow-up (AID 434935)

Structure (SMILES)	EC50
COc1ccc(-n2nc(C(=O)NCC(=O)N3CCN(c4ccccc4)CC3)c3ccccc3c2=O)c(OC)c1	1160 nM
CCCC(=O)NC(c1ccc(Cl)cc1)c1ccc2cccnc2c1O (centres undefined)	607 nM
CCCC(=O)NC(c1ccccc1)c1ccc2cccnc2c1O (centres undefined)	1110 nM
Cc1ccc(C(=O)c2coc3c2C(=O)C(=O)c2ccccc2-3)cc1	226 nM
O=C(NNC1=C(C(=O)C(F)(F)F)CCC1)c1ccc(Cl)cc1	6840 nM
CCOC(=O)N1C(=O)C2(CCCCC2)N(c2ccc(C)cc2)C1=S	1360 nM
COc1cc2c(cc1NC(=O)c1ccco1)CCCC2	< 100 nM
Cc1ccc(C(=O)Nc2cccc(-c3cn4ccccc4n3)c2)cc1	2780 nM
O=C(Oc1c(Cl)cc(Cl)c2cccnc12)c1cccs1	192 nM
CC(C)N1CCc2c(sc(NC(=O)c3nc4ccccc4s3)c2C(N)=O)C1	600 nM
Clc1ccc2c(c1)C(c1cccs1)=NNC(c1cccnc1)=N2	< 100 nM
O=C(Nc1sc2c(c1C(=O)c1ccc(Cl)cc1)CCCC2)c1cccnc1	938 nM
O=C(Nc1nnc(SCc2ccc(Cl)cc2)s1)c1ccc2ccccc2n1	771 nM
O=c1c2cc(Br)ccc2nc(-c2cccc(C(F)(F)F)c2)n1O	3100 nM
Cc1ccc(Nc2nc(N)c([N+](=O)[O-])c(N3CCC(C)CC3)n2)cc1C	6150 nM
O=C(Nc1nnc(CCc2ccccc2)s1)c1ccco1	3110 nM
CC(C)COCc1ccc(O)c2ncccc12	7460 nM
Cc1nc2ccccc2cc1OCc1ccc(F)cc1	7270 nM
Cc1ccc(/C=C/C(=O)c2ccccc(=O)c2O)cc1C	> 26000 nM (inactive)
Nc1nccnc1C(=O)Nc1nnc(SCc2ccc(Cl)cc2)s1	1430 nM
Cc1oc2c(F)c(F)c(F)c(F)c2c1S(=O)(=O)Nc1cccc(C(F)(F)F)c1	9310 nM
COc1ccc(-c2nnc(NC(=O)c3ccc(F)cc3)o2)cc1	146 nM
O=C(Nc1nc(-c2ccccn2)cs1)c1ccc(Br)s1	2360 nM
O=C(Nc1nnc(-c2ccc3c(c2)CCCC3)o1)c1ccc(Cl)cc1Cl	152 nM
